Measured values as given in patent US12570614B2, “Phenyl amino pyrimidine compounds and uses thereof” (GlaxoSmithKline LLC, priority 2007, dated 2026).
pIC50: −log10 of the molar value. “Also recorded” adds a separate entry of the source.

Tests used:
CTLL2 = assay: Cellular screening, CTLL2 cells (Alamar Blue); type: cell-based; conditions: Mus musculus, CTLL-2; 48-72 hr incubation; read-out: CTLL2_IC50_μM
Method: For screening purposes, compounds were diluted in 96 well plates at a concentration of 20 μM. Plates were warmed at 37° C. for 30 minutes before the assay was performed.
Cell suspensions were prepared by harvesting cells from culture (the cells used in this test were in late log phase growth with high viability.) Cells were diluted in the appropriate growth medium, as described above, to 1.1× final concentration (from 50,000 cell/mL to 200,000 cell/mL, depending on cell line).
Compounds to be tested were added (10 μL, 10× final concentration) to a flat bottomed 96-well plate. The cellular suspension (90 μL per well) was then added, and the plate incubated for 48-72 hr at 37° C., 5% CO2. Alamar Blue 10 μL per well was added and the plates returned to the incubator for a further 4-6 hours. The plates were then read at 544 nm.
Result are given in table 2 where +++ is <1 μM, ++ is <5 μM and + is <20 μM

[1] = tested on: IL-3 induced STAT5 phosphorylation in BaF3 cells; assay: Western blot of IL-3 induced STAT5 phosphorylation in BaF3 cells; type: cell-based, murine; conditions: 2 hours compound, mouse IL-3 5 ng/ml 15 minutes
Method: The Western blots were treated with a STAT5 phospho-specific antibody and exposed to film for 5 minutes (top blot) and 1 minute (middle blot).
The murine pro-B cell line BaF3 was routinely maintained in RPMI 1640 media containing 10% FCS. On the day of the experiment, cells were washed twice in PBS, and resuspended in RPMI 1640 media containing 0.1% FCS. […] Mouse IL-3 was then added to cells at a final concentration of 5 ng/ml for 15 minutes. Cells were then placed on ice and washed twice in ice-cold PBS. Washed cell pellets were snap-frozen in liquid nitrogen and stored at −80° C.
(§1) Cell pellets were lysed on ice in RIPA buffer, and lysates clarified by centrifugation (20,000×g, 4° C., 5 min). The protein concentration of lysates was determined by the Bradford method, and equal amounts of protein (60 μg/lane) were separated by SDS-PAGE. Protein was then transferred to PVDF, and Western blotting performed using an antibody that specifically recognizes STAT5 phosphorylated at tyrosine 694. The membrane was then stripped and reprobed with an antibody that recognizes total STAT5 protein.

[2] = tested on: STAT5 phosphorylation in HEL 92.1.7 cells; assay: Western blot of STAT5 phosphorylation in HEL cells; type: cell-based, human; conditions: 2 hours
Method: The Western blots were treated with a STAT5 phosphospecific antibody and exposed to film for 5 minutes (top blot) and 1 minute (middle blot).
The human erythroleukemic cell line HEL 92.1.7 was routinely maintained in RPMI 1640 media containing 10% FCS. The day before the experiment, cells were washed twice in PBS, resuspended in RPMI 1640 media containing 1% FCS, and cultured overnight.
Cells were then placed on ice and washed twice in ice-cold PBS. Washed cell pellets were snap-frozen in liquid nitrogen and stored at −80° C.
as §1

[3] = tested on: pYSTAT5 in erythroid cells (CD45lo, CD71hi) from bone marrow; assay: Ex vivo pYSTAT5 flow cytometry in erythroid cells from JAK2 V617F positive patients; type: cell-based, human; conditions: 3 μM to 0.0041 μM, one hour, erythropoietin stimulated 10 minutes, patient bone marrow
Source text: To assess the activity of small molecule inhibitors of JAK2 an assay has been developed to quantify the activity of the JAK-STAT pathway by measuring the phosphorylation status of the downstream protein STAT5. After ligand binding, a haemopoietic cytokine receptor undergoes conformational change activating associated JAK2 protein. Activated JAK2 then phosphorylates the intracellular portion of the receptor forming binding sites for the recruitment of intracellular signaling proteins. […]
Results of flow cytometry experiments are presented in two different formats (FIG. 7C). The pYSTAT5 positive population is quantitated as the percentage of cells in the upper right quadrant of the dot plot graphs (FIGS. 7A and B). […]
The second format of presentation is presented in the right panel of FIG. 7C. This measurement represents the mean fluorescence intensity in the pYSTAT5 channel and includes both erythroid cells that are stimulated by EPO and those that are not. This is an absolute value measurement of fluorescence and there was variability between these values between the three individuals tested. As the concentration of inhibitor is decreased the mean fluorescence of the total erythroid population moved towards the value of the positive control.

Structure (SMILES): N#CCNC(=O)c1ccc(-c2ccnc(Nc3ccc(N4CCOCC4)cc3)n2)cc1 [Compound 3, N-(cyanomethyl)-4-(2-(4-morpholinophenyl-amino)pyrimidin-4-yl)benzamide]
- pIC50 (CTLL2): > 5.30
- effect on IL-3 induced STAT5 phosphorylation (Western blot) [1]: dose-dependent effect; also recorded: decrease in STAT5 phosphorylation
- effect on STAT5 phosphorylation (Western blot) [2]: decrease in STAT5 phosphorylation
- effect on pYSTAT5 (STAT5 phosphorylation) in erythroid cells [3]: dose-dependent reduction
- effect on pYSTAT5 (STAT5 phosphorylation) in erythroid cells ([3]; listed as compound 3): dose-dependent increase in inhibition
